Data from PMC5042876 (Journal of the American Chemical Society, 2016).
Changes are numbered by the printed parent chain.

How the values were obtained:
PntM M81C-BME [1] = molecular target: T1, PntM M81C-BME (Streptomyces arenae, UniProt E3VWI3, M81C); test: Steady-state kinetics and product profile, PntM M81C-BME; format: biochemical; settings: M81C-BME mutant
T1 sequence (E3VWI3 1-398 M81C): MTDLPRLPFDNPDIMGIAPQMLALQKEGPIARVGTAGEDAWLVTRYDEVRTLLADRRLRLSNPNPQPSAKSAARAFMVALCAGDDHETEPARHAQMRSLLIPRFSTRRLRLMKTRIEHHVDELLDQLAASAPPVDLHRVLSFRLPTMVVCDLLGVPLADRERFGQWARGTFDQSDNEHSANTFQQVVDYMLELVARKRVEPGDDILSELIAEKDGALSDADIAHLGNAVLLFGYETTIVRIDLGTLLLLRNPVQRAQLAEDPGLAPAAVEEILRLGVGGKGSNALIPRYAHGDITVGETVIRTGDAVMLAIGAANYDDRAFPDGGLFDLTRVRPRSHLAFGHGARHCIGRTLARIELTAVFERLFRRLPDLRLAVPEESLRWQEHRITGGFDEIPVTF

PntM F232A [2] = molecular target: T2, PntM F232A (Streptomyces arenae, UniProt E3VWI3, F232A); test: Substrate binding assay
T2 sequence (E3VWI3 1-398 F232A): T1 sequence (E3VWI3 1-398 M81C) with C81M, F232A

PntM F232A [3] = molecular target: T2, PntM F232A; test: Steady-state kinetics and product profile, PntM F232A; format: biochemical; settings: F232A mutant
PntM-F232G = molecular target: T3, PntM-F232G (Streptomyces arenae, UniProt E3VWI3, F232G); test: Substrate binding assay
T3 sequence (E3VWI3 1-398 F232G): T1 sequence (E3VWI3 1-398 M81C) with C81M, F232G

PntM M77S [4] = molecular target: T4, PntM M77S (Streptomyces arenae, UniProt E3VWI3, M77S); test: Substrate binding assay
T4 sequence (E3VWI3 1-398 M77S): T1 sequence (E3VWI3 1-398 M81C) with M77S, C81M

PntM M81C-BME [5] = molecular target: T1, PntM M81C-BME; test: Substrate binding assay
[6] = molecular target: wild-type PntM (CYP161C2) (Streptomyces arenae, UniProt E3VWI3); test: Substrate binding assay
PntM M81C [7] = molecular target: T5, PntM M81C (Streptomyces arenae, UniProt E3VWI3, M81C); test: Substrate binding assay
T5 sequence (E3VWI3 1-398 M81C): T1 sequence (E3VWI3 1-398 M81C)

PntM M81A [8] = molecular target: T6, PntM M81A (Streptomyces arenae, UniProt E3VWI3, M81A); test: Steady-state kinetics and product profile, PntM M81A; format: biochemical; settings: M81A mutant
T6 sequence (E3VWI3 1-398 M81A): T1 sequence (E3VWI3 1-398 M81C) with C81A

PntM M81A [9] = molecular target: T6, PntM M81A; test: Substrate binding assay
PntM F232H = molecular target: T7, PntM F232H (Streptomyces arenae, UniProt E3VWI3, F232H); test: Substrate binding assay, PntM F232H; settings: PntM F232H mutant
T7 sequence (E3VWI3 1-398 F232H): T1 sequence (E3VWI3 1-398 M81C) with C81M, F232H

PntM M81C [10] = molecular target: T5, PntM M81C; test: Steady-state kinetics and product profile, PntM M81C; format: biochemical; settings: M81C mutant
PntM F232Y = molecular target: T8, PntM F232Y (Streptomyces arenae, UniProt E3VWI3, F232Y); test: Substrate binding assay, PntM F232Y; settings: PntM F232Y mutant
T8 sequence (E3VWI3 1-398 F232Y): T1 sequence (E3VWI3 1-398 M81C) with C81M, F232Y

PntM F232L [11] = molecular target: T9, PntM F232L (Streptomyces arenae, UniProt E3VWI3, F232L); test: Steady-state kinetics and product profile, PntM F232L; format: biochemical; settings: F232L mutant
T9 sequence (E3VWI3 1-398 F232L): T1 sequence (E3VWI3 1-398 M81C) with C81M, F232L

PntM M77S [12] = molecular target: T4, PntM M77S; test: Steady-state kinetics and product profile, PntM M77S; format: biochemical; settings: M77S mutant
PntM F232L [13] = molecular target: T9, PntM F232L; test: Substrate binding assay
[14] = comparator not stated, figures fit comparison with M81C

wild-type PntM (CYP161C2), sequence (E3VWI3 whole entry): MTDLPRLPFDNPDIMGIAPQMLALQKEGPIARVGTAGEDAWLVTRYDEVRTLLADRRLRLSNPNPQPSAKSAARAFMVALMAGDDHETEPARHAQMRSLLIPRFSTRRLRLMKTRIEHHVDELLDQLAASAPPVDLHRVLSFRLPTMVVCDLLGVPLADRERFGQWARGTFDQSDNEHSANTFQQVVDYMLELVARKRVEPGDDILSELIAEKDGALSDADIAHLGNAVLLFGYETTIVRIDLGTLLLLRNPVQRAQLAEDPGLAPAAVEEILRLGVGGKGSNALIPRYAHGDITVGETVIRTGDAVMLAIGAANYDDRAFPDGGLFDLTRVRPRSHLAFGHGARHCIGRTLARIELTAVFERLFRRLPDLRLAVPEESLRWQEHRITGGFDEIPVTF

## CC1(C)C[C@H]2C=C(C(=O)O)[C@@H]3COC(=O)[C@]4(CO4)[C@]23C1 [compound 2, pentalenolactone F]
PntM M81C-BME [1]
  product profile (GC-MS): no change in product profile
PntM F232A [2]
  Kd: 270 ± 85 µM
PntM F232A [3]
  lower kcat/Km than wild type PntM: > 60 fold
  product profile (GC-MS): exclusively pentalenolactone
PntM-F232G
  Kd: 225 ± 45 µM
PntM M77S [4]
  Kd: 115 ± 8 µM
PntM M81C-BME [5]
  KD greater than that of wild-type PntM: 4-6 fold
  Kd: 31 ± 1 µM
[6]
  Kd: 7.2 ± 0.8 µM
PntM M81C [7]
  KD greater than that of wild-type PntM: 4-6 fold
  Kd: 43 ± 3 µM
PntM M81A [8]
  product profile (GC-MS): no change in product profile
PntM M81A [8]; [14]
  less active: 5-15 fold
PntM M81A [9]
  Kd: 340 ± 90 µM
PntM F232H
  binding of substrate: did not bind
PntM M81C [10]
  product profile (GC-MS): exclusive formation of the oxidative rearrangement product 1
  reduction in kcat/Km compared to wild-type: 10 fold
PntM F232Y
  binding of substrate: did not bind
PntM F232L [11]
  decrease in kcat compared to wild type PntM: 20 fold
  reduction in Km compared to wild type PntM: 3 fold
  reduction in kcat/Km compared to wild type PntM: 7 fold
PntM F232L [11]; no detectable hydroxylation products
  product profile (GC-MS of total product mixture): only the natural oxidative rearrangement product, pentalenolactone (1)
PntM M77S [12]
  product profile (GC-MS): no change in product profile
PntM M77S [12]; [14]
  less active: 5-15 fold
PntM F232L [13]
  Kd: 160 ± 12 µM

## CC1(C)C[C@H]2C[C@@H](C(=O)O)[C@@H]3COC(=O)[C@]4(CO4)[C@]23C1 [compound 7, 6,7-dihydropentalenolactone F]
[6]
  Kd: 170 ± 17 µM
  binding weaker than natural substrate 2: ~25 times
[6]; wild-type PntM, UV shift from 420 nm to 390 nm
  P450 binding spectrum: normal Type I P450 binding spectrum
